For data set [1], the system named is Staphylococcus aureus ATCC 25923. The arrangement: method as in ref [3] (a number printed in a supplementary file, which may have a reference list of its own: not looked up in the article's list). As to conditions: versus ampicillin; supplement ref [3]; cited from earlier work.
The nature of data set [2]: Biomimetic IAM chromatography (log kw, IAM). As to conditions: IAM.PC.DD2 column, buffered acetonitrile, pH 7.4, 25 °C, extrapolated to buffer. Format: physicochemical. How it is done: High performance liquid chromatography (HPLC) measurements were performed on a Shimadzu Vp liquid chromatographic system (Shimadzu, Izabelin, Poland). This instrument was equipped with LC 10AT pump, SPD 10A ultraviolet-visible detector, SCL 10A system controller, CTO-10 AS chromatographic oven, and a Rheodyne injector valve with a 20 μL loop. As the stationary phase Regis IAM.PC.DD2 column, 100 × 4.6 mm i.d., 10 μm (Morton Grove, IL, USA) was applied.
Buffered acetonitrile mixtures were used as effluents. Acetonitrile concentration, expressed as a volume fraction, was varied within a range from 0.2 to 0.5, with a constant step of 0.1. The buffer was prepared from 0.01 mol L^−1 solutions of Na2HPO4 and citric acid, and a pH value of 7.4 was fixed before mixing with an organic modifier. The flow rate was 1.3 mL min^−1. Each compound sample was dissolved in acetonitrile to obtain a concentration of 0.005 mg mL^−1, and each solute peak was detected under ultraviolet light at a wavelength of λmax = 254 nm. Each measurement was performed at a constant temperature (25 °C) at least three times. The dead time values were measured from sodium chloride peaks.
From among 126 heterocyclic compounds evaluated in this work (Table 1), 89 structures have been investigated previously on the IAM column: these are molecules from groups III, IV, V, VI, VII, VIII, IX, XI, XIII, and XV [21, 22, 23]. The remaining ones, i.e., 37 compounds from groups I, II, X, XII and XIV, were tested in this study for the first time using the biomimetic IAM chromatographic technique. To calculate the log kw values (i.e., the logarithms of retention parameter in the buffer as the mobile phase), the retention parameters, logs k (k = (tr − t0)/t0; where tr is the solute retention time, and t0 is a dead time), that were measured for all tested compounds, were used according to Soczewiński-Wachtmeister’s equation (Equation (5)): (5) log k=logtr−t0/t0=log kw−sφ where φ denotes the volume fraction of acetonitrile as organic modifier in the mobile phase, and kw means the retention parameter corresponding to buffer as the mobile phase. The log kw values were evaluated as linear regression coefficients (Table 2).

A further data set concerns bacteria. Set-up: method as in ref [3] (a number printed in a supplementary file, which may have a reference list of its own: not looked up in the article's list). As to conditions: supplement ref [3], cited from earlier work.
For another data set, the system named is Pseudomonas aeruginosa. The arrangement: method as in ref [3] (a number printed in a supplementary file, which may have a reference list of its own: not looked up in the article's list). As to conditions: versus chloramphenicol and ampicillin; supplement ref [3]; cited from earlier work.
For data set [3] the following is noted: IAM column, cited from earlier work.
Data set [4] relates to zebrafish embryos and larvae. Set-up: method as in ref [18,20] (a number printed in a supplementary file, which may have a reference list of its own: not looked up in the article's list). As to conditions: versus anticancer agent pemetrexed; supplement ref [18,20]; cited from earlier work.
Data set [5] deals with human cancer cells. Set-up: method as in ref [3,9,10,13,18-21] (a number printed in a supplementary file, which may have a reference list of its own: not looked up in the article's list). As to conditions: supplement ref [3,9,10,13,18-21]; cited from earlier work.
On the set-up of data set [6]: method as in ref [19] (a number printed in a supplementary file, which may have a reference list of its own: not looked up in the article's list). As to conditions: supplement ref [19]; cited from earlier work.
On the set-up of data set [7]: method as in ref [8,16] (a number printed in a supplementary file, which may have a reference list of its own: not looked up in the article's list). As to conditions: supplement ref [8,16]; cited from earlier work.
On the set-up of data set [8]: method as in ref [21,22] (a number printed in a supplementary file, which may have a reference list of its own: not looked up in the article's list). As to conditions: supplement ref [21,22]; cited from earlier work.
In data set [9] the test system is hepatic adenosine A2A receptors. Set-up: method as in ref [22] (a number printed in a supplementary file, which may have a reference list of its own: not looked up in the article's list). As to conditions: antagonizes stimulatory effect of a selective A2A receptor agonist; supplement ref [22]; cited from earlier work.
On the set-up of data set [10]: method as in ref [22] (a number printed in a supplementary file, which may have a reference list of its own: not looked up in the article's list). As to conditions: supplement ref [22]; cited from earlier work.
The test system of data set [11] is oxidatively-stressed erythrocytes. As to conditions: supplement ref [4,19,26,30]; cited from earlier work.
On the set-up of data set [12]: method as in ref [14] (a number printed in a supplementary file, which may have a reference list of its own: not looked up in the article's list). As to conditions: supplement ref [14]; cited from earlier work.
Data set [13] relates to central nervous system of mice. The arrangement: method as in PMID 24157086. As to conditions: preliminary tests, ref [21]; cited from earlier work.
Data set [14] concerns human cancer cells. Set-up: method as in ref [3-7,9-15,17-21] (a number printed in a supplementary file, which may have a reference list of its own: not looked up in the article's list). As to conditions: supplement ref [3-7,9-15,17-21]; cited from earlier work.

Molecules are shown by their SMILES. Where two headings read alike, the source gives them in different places.

Take `Cc1ccc(N2CCn3c(COc4ccc(Cl)cc4C)nnc32)cc1` [Compound 9]: the “antibacterial activity against Staphylococcus aureus ATCC 25923” value in data set [1] was “comparable”. The “log kw, IAM” value in data set [2] is 1.95. The antibacterial activity result in the data set with bacteria was “antibacterial”.

As for `Clc1ccc(OCc2nnc3n2CCN3c2ccc(Cl)c(Cl)c2)c(Cl)c1` [Compound 13], in the data set with Pseudomonas aeruginosa, the “antibacterial potency against Pseudomonas aeruginosa ATCC 25923” value is given as “superior”. Also, the “log kw, IAM” value in [2] was 2.91. Also, the “selectivity of antibacterial activity” value with bacteria (Gram-negative strains) was “selective activity on Gram-negative strains of bacteria”. For the same molecule, the antibacterial activity entry in the data set on bacteria is “antibacterial”.

`O=c1c(C(F)(F)F)nnc2n1CCN2c1ccccc1` [Compound 15]: in data set [3] (ref [22]), the “log kw, IAM” value is listed as 0.94. In addition, in data set [4], the “toxicity for zebrafish embryos and larvae compared with pemetrexed” value is “lower”.

`Cc1ccccc1N1CCn2c1nnc(C(F)(F)F)c2=O` [Compound 16]: the “log kw, IAM” value in [3] (ref [22]) is 0.76. For the same molecule, in [4], the “toxicity for zebrafish embryos and larvae compared with pemetrexed” value was “lower”. In addition, in the data set with human cancer cells [5], the “mechanism of antiproliferative action: promoting apoptotic caspases” value is reported as “promoting apoptotic caspases”.

For `CCc1nnc2n(c1=O)CCN2c1ccc(Cl)c(Cl)c1` [Compound 28], the “log kw, IAM” value in [3] (ref [23]) is 1.85. In addition, the antiviral activity result in data set [6] is reported as “antiviral”.

For the molecule `COc1ccc(N2CCn3c2nnc(C(=O)NN)c3=O)cc1` [Compound 53], the analgesic activity entry in [7] is given as “analgesic”. Also, in data set [8], the antiradical activity result is “antiradical”. The “log kw, IAM” value in [3] (ref [21]) was −0.10. Besides, the “action towards hepatic adenosine A2A receptors” value in [9] is on record as “antagonistic”. In addition, the “scavenging of the superoxide anion radical” value in data set [10] is on record as “able to scavenge”.

With `COc1ccc(N2CCn3c2nnc(CC(=O)NN)c3=O)cc1` [Compound 58], the antiradical activity entry in data set [8] is listed as “antiradical”. Further, the “log kw, IAM” value in data set [2] was −0.27.

Take `Cc1cccc(N2CCn3c2nnc(-c2ccccc2)c3=O)c1` [Compound 83]: the analgesic activity entry in [7] is listed as “analgesic”; in [13], “analgesic activity”. For the same molecule, the “log kw, IAM” value in [3] (ref [23]) was 2.26. The antihemolytic activity result in data set [11] was “antihemolytic”. Further, in [12], the antimetastatic activity entry is reported as “antimetastatic”. In [13], the toxicity result is given as “low toxicity”.

With `COc1ccc(N2CCn3c2nnc(-c2ccccc2)c3=O)cc1` [Compound 86], in [3] (ref [23]), the “log kw, IAM” value is 1.71. Further, the antitumor activity entry with human cancer cells [14] is given as “antitumor”. For the same molecule, in data set [12], the antimetastatic activity entry is “antimetastatic”.

Consider `O=c1c(-c2ccccc2)nnc2n1CCN2c1ccccc1Cl` [Compound 89], for which the analgesic activity result in data set [7] is “analgesic”; in data set [13] it was “analgesic activity”. In addition, the “log kw, IAM” value in [3] (ref [23]) is listed as 1.73. Besides, the antihemolytic activity result in data set [11] is on record as “antihemolytic”. Besides, the toxicity entry in [13] is listed as “low toxicity”.

On to `O=c1c(-c2ccccc2)nnc2n1CCN2c1ccc(Cl)c(Cl)c1` [Compound 92], for which, in [7], the analgesic activity entry was “analgesic”. In addition, the “log kw, IAM” value in [3] (ref [23]) is on record as 3.26. Further, in data set [11], the antihemolytic activity entry is “antihemolytic”.

The record behind these values is PMC11154582, “Modeling the Blood-Brain Barrier Permeability of Potential Heterocyclic Drugs via Biomimetic IAM Chromatography Technique Combined with QSAR Methodology” (Molecules, 2024).
